Values quoted from earlier work, collected in patent publication US20260165989A1 (Société des Produits Nestlé S.A., priority 2024, published 2026).

Conditions: counter ion (base) for salt screening

pKa(s)*: 12.2
SMILES: C[N+](C)(C)CC(=O)O [Betaine]
